# Experimental data published in patent US6284785A, “1-arenesulfonyl-2-aryl-pyrrolidine and pyridine derivatives” (Hoffmann- La Roche Inc., priority 1999, dated 2001).
# Target: T1, rat mGlu 1a receptor (Rattus norvegicus, UniProt P23385)
# T1 construct: expressed in transfected cells; host or cells: EBNA cells (transient transfection)
# Assay: [Ca2+]i measurements (FLIPR, Fluo-3 AM) on mGlu 1a transfected EBNA cells; agonist or antagonist (against 10 μM glutamate)
# Assay type: cell-based
# Conditions: for Remarks (agonist / antagonist): table of substituents of the Examples, column Remarks
# Experimental: cDNA encoding rat mGlu 1a receptor obtained from Prof. Nakanishi (Kyoto, Japan) was transiently tranfected into EBNA cells using a procedure described by Schlaeger et. al, New Dev. New Appl. Anim Cell Techn., Proc. ESACT Meet., 15th (1998), 105-112 and 117-120. [Ca^2+ ]i measurements were performed on mGlu 1a transfected EBNA cells after incubation of the cells with Fluo-3 AM (0.5 μM final concentration) for 1hour at 37° C. followed by 4 washes with assay buffer (DMEM supplemented with Hank's salt and 20 mM HEPES. [Ca^2+ ]i measurements were done using a fluorometric imaging plate reader (FLIPR, Molecular Devices Corporation, La Jolla, Calif. USA). When compounds were evaluated as antagonists they were tested against 10 μM glutamate as agonist.
# The inhibition (antagonists) or activation (agonists) curves were fitted with a four parameter logistic equation giving EC50, IC50, and Hill coefficient using the iterative non linear curve fitting software Origin (Microcal Software Inc., Northampton, Mass., USA).
# T1 sequence (P23385 19-1199): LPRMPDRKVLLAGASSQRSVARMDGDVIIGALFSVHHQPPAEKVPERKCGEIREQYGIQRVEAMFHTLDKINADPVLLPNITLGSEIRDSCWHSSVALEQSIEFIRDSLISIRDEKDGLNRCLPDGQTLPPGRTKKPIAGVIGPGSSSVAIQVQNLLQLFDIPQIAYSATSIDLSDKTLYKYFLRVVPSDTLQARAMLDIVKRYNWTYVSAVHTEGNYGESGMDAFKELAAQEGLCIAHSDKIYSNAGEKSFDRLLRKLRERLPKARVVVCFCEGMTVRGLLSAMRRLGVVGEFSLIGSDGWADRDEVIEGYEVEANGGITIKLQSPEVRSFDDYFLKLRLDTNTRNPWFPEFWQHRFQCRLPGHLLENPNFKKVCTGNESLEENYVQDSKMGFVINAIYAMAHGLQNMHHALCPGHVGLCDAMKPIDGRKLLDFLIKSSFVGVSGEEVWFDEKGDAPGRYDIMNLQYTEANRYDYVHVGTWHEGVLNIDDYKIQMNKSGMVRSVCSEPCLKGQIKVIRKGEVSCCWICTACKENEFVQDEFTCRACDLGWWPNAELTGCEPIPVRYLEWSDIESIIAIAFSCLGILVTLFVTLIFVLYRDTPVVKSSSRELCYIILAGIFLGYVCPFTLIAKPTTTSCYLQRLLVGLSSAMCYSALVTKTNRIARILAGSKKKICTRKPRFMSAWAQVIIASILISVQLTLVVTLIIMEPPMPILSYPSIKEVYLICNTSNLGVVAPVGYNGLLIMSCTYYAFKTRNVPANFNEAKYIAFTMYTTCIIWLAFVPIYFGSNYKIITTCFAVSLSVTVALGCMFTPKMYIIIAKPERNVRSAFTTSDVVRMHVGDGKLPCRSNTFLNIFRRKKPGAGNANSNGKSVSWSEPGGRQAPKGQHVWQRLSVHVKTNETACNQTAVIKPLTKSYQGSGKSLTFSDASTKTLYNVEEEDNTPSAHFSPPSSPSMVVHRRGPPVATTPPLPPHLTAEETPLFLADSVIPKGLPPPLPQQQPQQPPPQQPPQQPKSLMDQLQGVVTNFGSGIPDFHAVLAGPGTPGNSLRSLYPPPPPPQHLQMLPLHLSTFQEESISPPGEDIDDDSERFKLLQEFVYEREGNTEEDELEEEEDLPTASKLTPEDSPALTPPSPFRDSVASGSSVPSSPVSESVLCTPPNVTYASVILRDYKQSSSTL
Structure (SMILES),agonistic / antagonistic activity to the mGlu receptor,agonist/antagonist (activity-data table),"EC50 (agonist, activation of mGlu 1a in EBNA cells, read-out: IC50 (compounds marked agonist)) [nM]",Remarks (agonist / antagonist)
"Cc1ccc(S(=O)(=O)N2CCC(C)C2c2ccc(F)cc2)cc1 (racemic) [Example 88, Mixture of (2RS,3RS )- and (2RS,3SR)-2-(4-fluoro-phenyl)-3-methyl-1-(toluene-1-sufonyl)-pyrrolidine]",agonistic activty,agonist,620,agonist
"Cc1ccc(S(=O)(=O)N2CCCC2c2ccc(F)c(Cl)c2)cc1 (racemic) [Example 42, (RS)-2-(3-Chloro-4-fluoro-phenyl)-1-(toluene-4-sulfonyl)-pyrrolidine]",–,–,–,Agonist
"Cc1ccc(S(=O)(=O)N2CCCC2c2ccc(C(F)(F)F)cc2)cc1 (racemic) [Example 48, (RS)-1-(Toluene-4-sulfonyl)-2-(4-trifluoromethyl-phenyl)-pyrrolidine]",agonistic activty,–,–,Agonist
"Cc1ccc(S(=O)(=O)N2CCCC2c2ccc(Cl)c(C)c2)cc1 (racemic) [Example 58, (RS)-2-(4-Chloro-3-methyl-phenyl)-1-(toluene-4-sulfonyl)-pyrrolidine]",agonistic activty,–,–,Agonist
"Cc1ccc(S(=O)(=O)N2CCC[C@@H]2c2ccc(F)cc2)cc1 [Example 81, (R)-2-(4-Fluoro-phenyl)-1-(toluene-4-sulfonyl)-pyrrolidine]",agonistic activty,–,–,Agonist
"O=S(=O)(c1ccc(F)cc1)N1CCCC1c1ccc(F)cc1 (racemic) [Example 16, (RS)-1-(4-Fluoro-benzenesulfonyl)-2-(4-fluoro-phenyl)-pyrrolidine]",agonistic activty,–,–,Agonist
"O=S(=O)(c1ccc(Cl)cc1)N1CCCC1c1ccc(F)cc1 (racemic) [Example 11, (RS)-1-(4-Chloro-benzenesulfonyl)-2-(4-fluorophenyl)-pyrrolidine]",–,–,–,Agonist
"Cc1ccc(S(=O)(=O)N2CCCC2c2ccc(Cl)cc2)cc1 (racemic) [Example 8, (RS)-2-(4-Chloro-phenyl)-1-(toluene-4-sulfonyl)-pyrrolidine]",agonistic activty,–,–,Agonist
"CC(C)c1ccc(S(=O)(=O)N2CCCC2c2ccc(F)cc2)cc1 (racemic) [Example 22, (RS)-2-(4-Fluoro-phenyl)-1-(4-isopropyl-benzenesulfonyl)-pyrrolidine]",–,–,–,Antagonist
